Assay results as given in patent EP4696688A1, “BENZO-FUSED RING COMPOUND INHIBITOR, AND PREPARATION METHOD THEREFOR AND USE THEREOF” (Shanghai Hansoh Biomedical Co., Ltd., priority 2023, dated 2024).

Legend:
[1] = target: T1, human CYP11B2 (Homo sapiens, UniProt P19099); test: G-402 cell enzyme experiment, CYP11B2 (aldosterone product, HTRF); type: cell-based; settings: G-402 cells stably expressing human CYP11B2, 1 µM 11-deoxycorticosterone, 16 h
T1 construct: The main elements of an expression plasmid include ORF of human CYP11B1 or human CYP11B2; expressed in transfected cells
T1 sequence (P19099 25-503): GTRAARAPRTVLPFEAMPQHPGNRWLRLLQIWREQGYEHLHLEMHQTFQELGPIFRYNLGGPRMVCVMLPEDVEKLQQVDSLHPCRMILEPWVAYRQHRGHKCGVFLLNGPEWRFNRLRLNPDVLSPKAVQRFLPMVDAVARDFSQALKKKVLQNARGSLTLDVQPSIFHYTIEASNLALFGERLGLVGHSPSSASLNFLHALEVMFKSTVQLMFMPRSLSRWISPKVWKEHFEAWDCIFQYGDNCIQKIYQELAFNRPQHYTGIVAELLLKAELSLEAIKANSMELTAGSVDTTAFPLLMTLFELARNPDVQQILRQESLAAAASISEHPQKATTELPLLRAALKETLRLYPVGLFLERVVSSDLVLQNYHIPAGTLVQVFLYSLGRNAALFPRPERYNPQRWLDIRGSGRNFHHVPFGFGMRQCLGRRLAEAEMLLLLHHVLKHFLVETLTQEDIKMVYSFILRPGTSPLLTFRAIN
Source text: (§1) G-402 cell line was used as host cells to express (by transient or stable transfection) an enzyme of the human CYP11 family. Specifically, G-402 cell lines stably expressing human CYP11B1 and human CYP11B2 were established respectively. […] Therefore, the G-402 cell line is very suitable as a host cell for the ectopic expression of an enzyme of the CYP11 family.
(§2) The G-402 cell line, originally derived from renal myoblastoma, can be obtained from ATCC (CRL-1440). The main elements of an expression plasmid include ORF of human CYP11B1 or human CYP11B2, a suitable promoter (CMV promoter), and a suitable resistance marker (neomycin). The expression plasmid was transfected into G-402 cells by standard technology, and a specific antibiotic was then given for screening. The activity of the enzyme expressed by the screened monoclonal cells was assessed by 11-deoxycorticosterone (substrate of CYP11B2) and 11-deoxycortisol (substrate of CYP11B1).
(§3) The G-402 cells expressing CYP11 plasmid, as established in the above solution, were cultured in McCoy's 5a Modified Medium (ATCC Catalog No. 30-2007) containing 10% FCS and 400 µg/ml G418 in an incubator at 37°C and 5% CO2. A cell enzyme experiment was carried out using DMEM/F12 medium containing 2.5% charcoal-treated FBS and an appropriate concentration of a substrate (1 µM 11-deoxycorticosterone or 1 µM 11-deoxycortisol). In order to detect the activity of the enzyme in the cells, the cells were plated in a 96-well plate and incubated for 16 h. The supernatant was then transferred and analyzed for the concentration of the expected product (the product of CYP11B2: aldosterone; the product of CYP11B1: cortisol). The concentrations of these products were determined by an HTRF experiment of CisBio.
(§4) In the cell enzyme experiment, the inhibitory effect of the test compound on the generated product can reflect the inhibitory effect thereof on the enzyme. The dose-dependent inhibition of the enzyme activity by the compound was calculated by plotting the concentration of the test compound (x axis) versus the measured product level (y axis). Then, the original data was fitted to a 4-parameter sigmoidal function (Morgan-Mercer-Flodin, MMF model) by least square method: y = (AB + Cx^D) / (B + x^D) in which A is the maximum y value, B is the EC50 determined by XLFit, C is the minimum y value, and D is the slope value. The maximum value A corresponds to the amount of the product detected without an inhibitor, and C corresponds to the amount of the product detected in the G402 cells expressing an empty plasmid.
(§5) The EC50 value of the compound of the present invention was determined by the above G-402 experiment system. The activity of the CYP11B2 enzyme was determined under the conditions of 1 µM 11-deoxycorticosterone and a variable amount of the inhibitor, and the activity of the CYP11B1 enzyme was determined under the conditions of 1 µM 11-deoxycortisol and a variable amount of the inhibitor.

[2] = target: T2, human CYP11B1 (Homo sapiens, UniProt P15538); test: G-402 cell enzyme experiment, CYP11B1 (cortisol product, HTRF), selectivity versus CYP11B2; type: cell-based; settings: human selective factor: ratio of CYP11B1 EC50 to CYP11B2 EC50; G-402 cells
T2 construct: The main elements of an expression plasmid include ORF of human CYP11B1 or human CYP11B2; expressed in transfected cells
T2 sequence (P15538 25-503): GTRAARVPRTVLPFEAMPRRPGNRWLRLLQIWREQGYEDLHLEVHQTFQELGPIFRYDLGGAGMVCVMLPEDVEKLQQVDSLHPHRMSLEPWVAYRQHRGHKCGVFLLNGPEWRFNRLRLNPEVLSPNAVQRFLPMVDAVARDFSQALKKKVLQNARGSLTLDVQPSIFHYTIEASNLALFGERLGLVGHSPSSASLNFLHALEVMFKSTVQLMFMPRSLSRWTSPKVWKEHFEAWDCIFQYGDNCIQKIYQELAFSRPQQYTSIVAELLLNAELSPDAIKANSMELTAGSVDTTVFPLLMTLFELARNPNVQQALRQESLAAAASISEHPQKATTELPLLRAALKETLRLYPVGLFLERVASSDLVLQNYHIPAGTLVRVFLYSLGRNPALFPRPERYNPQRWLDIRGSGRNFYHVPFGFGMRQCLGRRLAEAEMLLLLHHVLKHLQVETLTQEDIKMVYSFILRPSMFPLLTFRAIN
Source text: as §1, §2, §3, §4, §5

[3] = Pharmacokinetic determination in rats; type: in vivo; settings: rat, male SD rats, plasma, oral administration (PO) 5 mg/kg; for MRT inf: read-out: MRT0-∞
Description: SD rats were used as test animals to study the pharmacokinetic behavior of the compounds of the present invention in rats (plasma) after oral administration.
3 SD rats per group, male.
Formulation of drug for oral administration: 0.5% CMC-Na (1% Tween 80)
5 g of sodium carboxymethyl cellulose (CMC-Na, viscosity: 800-1200 Cps) was weighed and dissolved in 1000 mL of purified water, and 10 g of Tween 80 was added. These materials were uniformly mixed to form a clear solution.
The example compounds were weighed and dissolved in the solution and the mixture was shaken well and ultrasonicated for 15 min to obtain a colorless clear solution with a concentration of 0.5 mg/mL. Formulation of drug for intravenous administration: 5% DMSO + 10% Solutol HS15 + 85% PBS
After overnight fasting, 3 male SD rats per group were administered orally (PO) at a dose of 5 mg/kg with an administration volume of 10 mL/kg. […]
0.2 mL of blood was collected from the jugular vein of the experimental animals before administration and at 0.25 h, 0.5 h, 1.0 h, 2.0 h, 4.0 h, 6.0 h, 8.0 h, and 24.0 h after administration and placed in an EDTA-2K test tube, and the test tube was centrifuged at 8000 rpm for 6 min at 4°C to separate the plasma, which was stored at -80°C; and the animals were fed 4 h after administration.
3 Experimental results: The final determination results were obtained by using LCMS/MS method.

SMILES	EC50 [1]	hsF [2]	AUC(0-inf) [3]	AUC(0-t) [3]	Cmax [3]	Tmax [3]	half-life [3]	MRT inf [3]
COc1ccc2cc(-c3cncc(N4CC5(CN(C(=O)c6ccc(C)nc6)C5)C4)n3)ccc2n1 [Example 100, (6-(6-(2-methoxyquinolin-6-yl)pyrazin-2-yl)-2,6-diazaspiro[3.3]heptan-2-yl)(6-methylpyridin-3-yl)methanone]	9 nM	1048x	22500 ng·h/mL	20100 ng·h/mL	3950 ng/mL	2 h	2 h	4.1 h
Cn1cc(C(=O)N2CC(Oc3cncc(-c4ccc5c(c4)sc(=O)n5C)c3)C2)cn1 [Example 91, 3-methyl-6-(5-((1-(1-methyl-1H-pyrazole-4-carbonyl)azetidin-3-yl)oxy)pyridin-3-yl)benzo[d]thiazol-2(3H)-one]	12 nM	2278x	18200 ng·h/mL	18200 ng·h/mL	2560 ng/mL	1 h	2.2 h	4.2 h
COc1ccc2cc(-c3cncc(N4CC5(CN(C(=O)c6cnn(C)c6)C5)C4)c3)ccc2n1 [Example 23, (6-(5-(2-methoxyquinolin-6-yl)pyridin-3-yl)-2,6-diazaspiro[3.3]heptan-2-yl)(1-methyl-1H-pyrazol-4-yl)methanone]	9 nM	> 22909x	33600 ng·h/mL	33600 ng·h/mL	5720 ng/mL	2 h	2.2 h	3.8 h
COc1ccc2cc(-c3cncc(N4CC5(CN(C(=O)c6cnn(C)c6)C5)C4)n3)ccc2n1 [Example 79, (6-(6-(2-Methoxyquinolin-6-yl)pyrazin-2-yl)-2,6-diazaspiro[3.3]heptan-2-yl)(1-methyl-1H-pyrazol-4-yl)methanone]	12 nM	3999x	16700 ng·h/mL	16700 ng·h/mL	3160 ng/mL	4 h	2.8 h	4.5 h
COc1ccc2cc(-c3cncc(N4CC5(CN(C(=O)C6CC6)C5)C4)c3)ccc2n1 [Example 82, cyclopropyl (6-(5-(2-methoxyquinolin-6-yl)pyridin-3-yl)-2,6-diazaspiro[3.3]heptan-2-yl)methanone]	18 nM	842x	–	–	–	–	–	–
[2H]C([2H])([2H])n1cc(C(=O)N2CC3(C2)CN(c2cncc(-c4ccc5nc(OC)ccc5c4)c2)C3)cn1 [Example 78, (6-(5-(2-methoxyquinolin-6-yl)pyridin-3-yl)-2,6-diazaspiro[3.3]heptan-2-yl)(1-(methyl-d3)-1H-pyrazol-4-yl)methanone]	24 nM	> 8488x	21600 ng·h/mL	21600 ng·h/mL	3210 ng/mL	4 h	1.9 h	4.7 h
Cn1c(=O)ccc2cc(-c3cncc(C4=CCN(S(=O)(=O)C5CC5)CC4)c3)ccc21 [Example 70, 6-(1'-(cyclopropylsulfonyl)-1',2',3',6'-tetrahydro-[3,4'-bipyridin]-5-yl)-1-methylquinolin-2(1H)-one]	55 nM	252x	–	–	–	–	–	–
COc1ccc2cc(-c3cncc(N4CC5(CN(C(C)=O)C5)C4)c3)ccc2n1 [Example 92, 1-(6-(5-(2-methoxyquinolin-6-yl)pyridin-3-yl)-2,6-diazaspiro[3.3]heptan-2-yl)ethan-1-one]	11 nM	1285x	–	–	–	–	–	–
Cn1cc(C(=O)N2CCC3(CC2)CN(c2cncc(-c4ccc5c(c4)sc(=O)n5C)c2)C3)cn1 [Example 103, 3-methyl-6-(5-(7-(1-methyl-1H-pyrazole-4-carbonyl)-2,7-diazaspiro[3.5]nonan-2-yl)pyridin-3-yl)benzo[d]thiazol-2(3H)-one]	26 nM	1292x	24700 ng·h/mL	24700 ng·h/mL	2700 ng/mL	4 h	1.8 h	5.6 h
COc1ccc2cc(-c3cncc(N4CC5(CC(N6CCc7cc(C)ncc7C6=O)C5)C4)c3)ccc2n1 [Example 108, 2-(2-(5-(2-Methoxyquinolin-6-yl)pyridin-3-yl)-2-azaspiro[3.3]heptan-6-yl)-6-methyl-3,4-dihydro-2,7-diazanaphthalen-1(2H)-one]	71 nM	> 2817x	–	–	–	–	–	–
COc1ccc2cc(-c3cncc(NC4CN(C(=O)c5cnn(C)c5)C4)c3)ccc2n1 [Example 40, (3-((5-(2-methoxyquinolin-6-yl)pyridin-3-yl)amino)azetidin-1-yl)(1-methyl-1H-pyrazol-4-yl)methanone]	13 nM	2541x	–	–	–	–	–	–
COc1ccc2cc(-c3cncc(N4CC5(CN(C(C)=O)C5)C4)n3)ccc2n1 [Example 93, 1-(6-(6-(2-methoxyquinolin-6-yl)pyrazin-2-yl)-2,6-diazaspiro[3.3]heptan-2-yl)ethan-1-one]	48 nM	229x	–	–	–	–	–	–
COc1ccc2cc(-c3cncc(N4CC5(CN(C(=O)C6(F)CC6)C5)C4)c3)ccc2n1 [Example 94, (1-fluorocyclopropyl)(6-(5-(2-methoxyquinolin-6-yl)pyridin-3-yl)-2,6-diazaspiro[3.3]heptan-2-yl)methanone]	13 nM	350x	–	–	–	–	–	–
Cc1ccc(C(=O)N2CC3(C2)CN(c2cncc(-c4ccc5c(c4)sc(=O)n5C)c2)C3)cn1 [Example 101, 3-methyl-6-(5-(6-(6-methylnicotinoyl)-2,6-diazaspiro[3.3]heptan-2-yl)pyridin-3-yl)benzo[d]thiazol-2(3H)-one]	43 nM	> 4651x	–	–	–	–	–	–
